Experiments:
Type in all cases: functional, Homo sapiens
Parameters in all cases: dose or concentration left out as unconfirmed
Colon cancer organoid [1] = experiment: Identification of compartment-specific drug sensitivities in O06 CRC organoid-stroma F06 CAF co-cultures. Organoid is transduced with Lucferase2-P2A-EGFP lentivirus, fibroblast with Renilla-dsRed lentivirus. Dual-Glo Luciferase assay is used to report viability data.
Colon cancer organoid [2] = experiment: Identification of compartment-specific drug sensitivities in O14 CRC organoid-stroma F14 CAF co-cultures. Organoid is transduced with Lucferase2-P2A-EGFP lentivirus, fibroblast with Renilla-dsRed lentivirus. Dual-Glo Luciferase assay is used to report viability data.
Colon cancer organoid [3] = experiment: Identification of compartment-specific drug sensitivities in O20 CRC organoid-stroma F20 CAF co-cultures. Organoid is transduced with Lucferase2-P2A-EGFP lentivirus, fibroblast with Renilla-dsRed lentivirus. Dual-Glo Luciferase assay is used to report viability data.
[4] = Transduced with Lucferase2-P2A-EGFP lentivirus
[5] = Transduced with Renilla-dsRed lentivirus

Row | Compound | Cell Viability (Colon cancer organoid [1]; [4]) [%] | Cell Viability (Colon cancer organoid [1]; [5]) [%] | Cell Viability (Colon cancer organoid [2]; [4]) [%] | Cell Viability (Colon cancer organoid [2]; [5]) [%] | Cell Viability (Colon cancer organoid [3]; [4]) [%] | Cell Viability (Colon cancer organoid [3]; [5]) [%]
1 | Cc1c(Nc2ccc(S(=O)(=O)N3CCN(C)CC3)cc2F)nc2ccc(-c3cnn(C4CC4)c3)cn2c1=O | 106.525 | 138.146 | 116.873 | 77.7436 | 100.446 | 149.535
2 | CCOC(=O)CCNc1cc(N2CCc3ccccc3CC2)nc(-c2cccnc2)n1 | 130.773 | 124.082 | 87.4597 | 97.4259 | 102.371 | 131.422
3 | CCCCN(Cc1ccccc1)C(=O)c1ccc(S(=O)(=O)Nc2ccccc2)cc1 | 68.2046 | 126.816 | 91.6685 | 100.658 | 74.981 | 116.955
4 | COc1cc(OC)cc(-c2noc(N3CCN(C)C4(CCN(c5ccnc(C)c5)CC4)C3)n2)c1 | 121.179 | 136.172 | 96.7615 | 90.1785 | 136.59 | 146.282
5 | CNc1cc(Oc2cc(C(=O)Nc3cc(N4CCN(C)CC4)cc(C(F)(F)F)c3)ccc2C)ncn1 | 72.9479 | 75.3319 | 198.58 | 101.862 | 163.613 | 75.5289
6 | C[C@H]1CCCN1Cc1nc2cc(NC(=O)c3ccc4cnccc4c3)ccc2[nH]1 | 122.515 | 131.721 | 76.6817 | 109.65 | 98.7446 | 149.477
7 | Cc1cc(C)cc([C@@H]2c3cc(C)ccc3NC(=O)CN2C(=O)c2ccc(Br)s2)c1 | 107.168 | 464.523 | 110.484 | 405.65 | 135.909 | 541.943
8 | Cc1cc(C)cc([C@H]2c3cc(C)ccc3NC(=O)CN2C(=O)c2ccc(Br)s2)c1 | 94.0417 | 115.465 | 153.941 | 101.442 | 134.675 | 98.7461
9 | CC1=C(C)C(=O)C(C(C)(C)CC(=O)N(CCCCSC[C@H]2O[C@@H](n3cnc4c(N)ncnc43)[C@@H]3OC(C)(C)O[C@@H]32)Cc2cccc(-c3ccc(Cl)cc3)c2)=C(C)C1=O | 82.0361 | 129.013 | 94.9972 | 94.497 | 98.0775 | 117.278
10 | COCCN1CCC(c2cc(CN(C)C(=O)c3cccc(Oc4ccccc4)c3)ccn2)CC1 | 91.2389 | 131.922 | 131.353 | 104.266 | 94.6976 | 115.605
11 | CC(=O)c1cc(-c2ccccc2OCC2CC2)c2ncccn12 | 107.249 | 181.775 | 107.478 | 95.946 | 91.2961 | 121.201
12 | Cc1cc(CN)cc(C)c1-c1ncn(C)c1-c1cncn1C | 121.461 | 141.638 | 88.8994 | 94.9152 | 127.793 | 117.48
13 | CC1=C(C)C(=O)C(C(C)(C)CC(=O)N(CCCCSC[C@H]2O[C@@H](n3cnc4c(N)ncnc43)[C@H](O)[C@@H]2O)Cc2cccc(-c3ccc(Cl)cc3)c2)=C(C)C1=O | 117.447 | 138.552 | 65.9332 | 97.7144 | 100.369 | 114.813
14 | CC(C)Oc1ccc(-c2c[nH]cc2CN(C)CCO)cc1 | 112.392 | 114.959 | 129.064 | 102.719 | 114.429 | 121.653
15 | CCNC(=O)c1cc2c(N3CCOCC3C)ccnc2[nH]1 (stereo unspecified) | 130.766 | 119.513 | 143.994 | 130.326 | 144.452 | 100.256
16 | Cl.Cn1cncc1[C@](O)(COc1ccc(C#N)cc1-c1ccc(OC(F)(F)F)cc1)c1ccc(C#N)cc1 | 46.0933 | 149.066 | 31.1337 | 75.4889 | 15.3114 | 150.357

Reference: ChEMBL document CHEMBL5608141, “Identification of compartment-specific drug sensitivities in CRC organoid-stroma co-cultures” (2024)
